≈ marks a conversion by molar mass, not a printed value.
Columns and labels:
[1] = system: HeLa; test: Cytotoxicity against human HeLa cells after 24 to 48 hrs by MTT assay; type: functional, cell-based
[2] = system: Streptococcus sobrinus; test: Antibacterial activity against Streptococcus sobrinus 6715 after 24 hrs by agar diffusion method; type: functional; conditions: Streptococcus sobrinus, 6715, 24 h
[3] = system: Streptococcus oralis; test: Antibacterial activity against Streptococcus oralis PB182 after 24 hrs by agar diffusion method; type: functional; conditions: PB182, 24 h
[4] = system: Streptococcus sobrinus; test: Antibacterial activity against Streptococcus sobrinus 6715 assessed as total biofilm adherence inhibition after 18 hrs by microtechnique; type: functional
[5] = system: Actinomyces naeslundii; test: Antimicrobial activity against Actinomyces naeslundii 12104 after 24 hrs by agar diffusion method; type: functional; conditions: Actinomyces naeslundii, 12104, 24 h
[6] = system: Streptococcus mutans; test: Antibacterial activity against Streptococcus mutans UA159 after 24 hrs by agar diffusion method; type: functional; conditions: UA159, 24 h
[7] = system: Streptococcus gordonii; test: Antibacterial activity against Streptococcus gordonii 10558 after 24 hrs by agar diffusion method; type: functional; conditions: Streptococcus gordonii, 10558, 24 h
[8] = system: Streptococcus mutans; test: Antibacterial activity against Streptococcus mutans UA159 assessed as total biofilm adherence inhibition after 18 hrs by microtechnique; type: functional
[9] = system: Staphylococcus aureus; test: Antibacterial activity against Staphylococcus aureus 25923 after 24 hrs by agar diffusion method; type: functional; conditions: Staphylococcus aureus, 25923, 24 h

SMILES | IC50 [1] [nM] | MBC [2] [µg/mL] | MIC [2] [µg/mL] | MBC [3] [µg/mL] | MIC [3] [µg/mL] | Activity [4] [µg/mL] | MBC [5] [µg/mL] | MIC [5] [µg/mL] | MBC [6] [µg/mL] | MIC [6] [µg/mL] | MBC [7] [µg/mL] | MIC [7] [µg/mL] | Activity [8] [µg/mL] | MBC [9] [µg/mL] | MIC [9] [µg/mL]
CC(C)=CCC1=C(O)[C@@]2(C(=O)c3ccccc3)C(=O)[C@](CC=C(C)C)(C[C@H](CC=C(C)C)C2(C)C)C1=O | 3300 | – | – | – | – | – | – | – | – | – | – | – | – | – | –
CC(C)=CC[C@H]1C[C@@]2(CC=C(C)C)C(=O)[C@](C(=O)c3ccccc3)(C(=O)C3=C2O[C@H](C(C)(C)O)C3)C1(C)C [HYPERIBONE A] | 176 | 53 (≈ 102 µM) | 3.3 (≈ 6.36 µM) | 26 (≈ 50.1 µM) | 1.65 (≈ 3.18 µM) | 1.65 | 6.6 (≈ 12.7 µM) | 1.65 (≈ 3.18 µM) | 53 (≈ 102 µM) | 3.3 (≈ 6.36 µM) | 26 (≈ 50.1 µM) | 1.65 (≈ 3.18 µM) | 1.65 | 5.85 (≈ 11.3 µM) | 0.73 (≈ 1.41 µM)
